Measurements from patent publication US20250297321A1, “METHOD FOR DETECTING METABOLIC REPROGRAMING OF CANCER TOWARDS FATTY ACIDS METABOLISM” (INSTITUT NATIONAL DE LA SANTE ET DE LA RECHERCHE MEDICALE, priority 2022, published 2025).

What was measured:
Format in all cases: cell-based, human
[1] = tested on: MD901 DLBCL cell line; test: Annexin V/DAPI apoptosis assay in MD901; details: for Apoptosis by Annexin V/DAPI staining: MD901 (FIG. 8A); for Drug-induced apoptosis upon RelB-expression knockdown: RelB knocked-down MD901 vs shRNA control (FIG. 8A)
Description: MD901 and SUDHL-4 DLBCL cell lines were obtained from Jos6 Angel Martinez-Climent (Centro de Investigación Médica Aplicada, Pamplona, Spain).
(§1) DLBCL cells were harvested and washed twice with cold PBS. Cells were resuspended in 1× binding buffer containing Annexin V/APC (BD Biosciences Pharmingen) and 4′,6-diaminidino-2-phenylindole (DAPI, Molecular Probes) for 15 min at room temperature. The samples were subjected to cytometric analysis with a MACSQuant Analyzer 10 Flow Cytometer (Miltenyi Biotec) and the data were analyzed using the Flowjo v10.2 software.

[2] = tested on: MD901 DLBCL cell line; test: Mitochondrial transmembrane potential (TMRM) in MD901; details: RelB knocked-down MD901, TMRM low (FIG. 8B)
Description: For determination of mitochondrial transmembrane potential (ΔΨm), cells were stained with 100 nM of Tetramethyl rhodamine methyl ester (TMRM) (Molecular Probes) in RPMI-1640 Glutamax medium for 30 min at room temperature. Cells were evaluated by cytometric analysis as above. During apoptosis, the permeabilization of the mitochondrial outer membrane leads to loss of mitochondrial transmembrane potential (ΔΨm) corresponding to TMRM low/DAPI neg cells.

[3] = tested on: Huh7 cells; test: Huh7 cell growth (RelB overexpressing cells); details: 4-BCA 10 μM, 48 h, vs control cells (FIG. 4B)
Description: (§2) Huh7 HCC cell line and genetically engineered derivatives targeting RelB expression levels (knock-down of RelB expression: Huh7 shRNA human RelB & Huh7 shRNA control; RelB overexpression: Huh7 cDNA human WT Rel & Huh7 cDNA control) were grown in MEM culture medium supplemented with 10% of fetal bovine serum (FBS), 100 U/mL penicillin, and […] streptomycin, 25 mM Hepes Buffer, 1 mM of sodium pyruvate, 1% of non-essential amino-acids (NEAA), which stands for standard culture medium. Huh7 genetically engineered cell lines were only used at passage P1 to P6. Cells passaging occurred twice a week to maintain a condition of 75% confluence. To evaluate the effect of fatty acid treatment, Huh7 cells cultured in FBS-free medium for hours were treated for 16 hours in FBS-free medium supplemented with various concentration (50 to 300 μM) of either oleic or palmitic acid along with 1% of free fatty acid bovine serum albumin.
(§3) Cell viability was assessed using trypan blue dye exclusion.

[4] = tested on: Huh7 cells; test: Huh7 cell death, DAPI staining; details: RelB overexpressing Huh7, palmitic acid 50 μM, 0% FBS, 48 h, in presence of 4-BCA (FIG. 4C)
Description: as §2, with “Huh7 cells cultured in FBS-free medium for hours were treated for 16 hours in FBS-free medium supplemented with various concentration (50 to 300 μM) of either oleic or palmitic acid along with 1% of free fatty” left out
Huh7 cells were stained with 4′, 6-diamidino-2-phenylindole (DAPI). Then, images were acquired for DAPI positive cells by fluorescent microscopy (magnification: 20×) on at least 6 different fields combined with one acquisition under white light to quantify the total number of cells in the same field. Quantification was carried out by image J software. Cell death is expressed in percentage (number of DAPI positive cells/total number of cells per field)*100).

[5] = tested on: MD901 cells; test: Induction of cell death in MD901 cells
Description: as §1, §3

[6] = tested on: OCILY19 cells; test: Induction of cell death in OCILY19 cells
Description: as §1, §3

[7] = tested on: SUDHL-4 cells; test: Induction of cell death in SUDHL-4 cells; details: glycolytic BCR SUDHL-4 cells
Description: as §1, §3

COc1cc(Nc2ncc(F)c(Nc3ccc4c(n3)NC(=O)C(C)(C)O4)n2)cc(OC)c1OC [R406]
Sensitivity to R406-induced apoptosis ([1]; MD901 (FIG. 6A)): insensitive

CN(C)C(=N)N=C(N)N [Metformin, metformin]
Apoptosis by Annexin V/DAPI staining [1]: significant apoptosis
Cell death induced by metformin upon knockdown of RelB expression ([1]; RelB knocked-down MD901): even more pronounced cell death
Drug-induced apoptosis upon RelB-expression knockdown [1]: markedly increased
Loss of mitochondrial potential upon RelB-expression knockdown [2]: increase in loss of mitochondrial potential

O=C(O)/C=C/CBr [4-BCA, 4-bromocrotonic acid]
Cell growth in RelB overexpressing Huh7 cells [3]: the RelB-dependent increase in Huh7 cell number was lost and cell growth rate was even lowered compared to the control cells
Cell death (DAPI positive cells), RelB pro-survival effect against palmitate [4]: RelB pro-survival effect was almost completely abolished
Cell death upon inhibition of fatty acid oxidation ([5]; MD901, as soon as 24 hours post-treatment (FIG. 9A)): massive and rapid cell death
Cell death upon inhibition of fatty acid oxidation ([6]; Oci-Ly19, as soon as 24 hours post-treatment (FIG. 10A)): massive and rapid cell death
Sensitivity to 4-BCA treatment ([7]; compared with MD901 / Oci-Ly19 (not shown)): much less sensitive

C=C1C(=O)OC(CCCCCCCC)C1C(=O)O (stereo not shown) [C75]
Cell death upon inhibition of fatty acid synthesis ([5]; MD901, as soon as 24 hours post-treatment (FIG. 11A)): massive and rapid cell death
Cell death upon inhibition of fatty acid synthesis ([6]; Oci-Ly19, as soon as 24 hours post-treatment (FIG. 12A)): massive and rapid cell death
Sensitivity to C75 ([7]; compared with MD901 / Oci-Ly19): much less sensitive

B1: Kidrolase®: L-asparaginase; catalyzes the hydrolysis of asparagine and glutamine into aspartate and glutamate (protein, UniProt P00805 23-348, looked up)
L-asparaginase 2: LPNITILATGGTIAGGGDSATKSNYTVGKVGVENLVNAVPQLKDIANVKGEQVVNIGSQDMNDNVWLTLAKKINTDCDKTDGFVITHGTDTMEETAYFLDLTVKCDKPVVMVGAMRPSTSMSADGPFNLYNAVVTAADKASANRGVLVVMNDTVLDGRDVTKTNTTDVATFKSVNYGPLGYIHNGKIDYQRTPARKHTSDTPFDVSKLNELPKVGIVYNYANASDLPAKALVDAGYDGIVSAGVGNGNLYKSVFDTLATAAKTGTAVVRSSRVPTGATTQDAEVDDAKYGFVASGTLNPQKARVLLQLALTQTKDPQQIQQIFNQY
Apoptosis by Annexin V/DAPI staining [1]: significant apoptosis
Drug-induced apoptosis upon RelB-expression knockdown [1]: markedly increased
Loss of mitochondrial potential upon RelB-expression knockdown [2]: increase in loss of mitochondrial potential
